Measured values: publication PMC12508063, “Chloroindazole based estrogen receptor β ligands with favorable pharmacokinetics promote functional remyelination and visual recovery” (Scientific Reports, 2025)
Several values for one entry are separate records, joined by “and”; a condition that tells them apart may be missing. Identical values can stand only once.

What was measured:
ERβ = molecular target: T1, ERβ (Homo sapiens, UniProt Q92731); assay: ER reporter gene assay in HEK 293 T cells (ER-luciferase reporter); type: cell-based; details: for Reporter gene assay raw data, ERb: ERb data block (head r19), 4 replicate columns; for ERb reporter gene assay raw data (response): four replicate columns per compound
T1 construct: expressed in transfected cells; host or cells: HEK 293 T cells
T1 sequence (Q92731 whole entry, species assumed): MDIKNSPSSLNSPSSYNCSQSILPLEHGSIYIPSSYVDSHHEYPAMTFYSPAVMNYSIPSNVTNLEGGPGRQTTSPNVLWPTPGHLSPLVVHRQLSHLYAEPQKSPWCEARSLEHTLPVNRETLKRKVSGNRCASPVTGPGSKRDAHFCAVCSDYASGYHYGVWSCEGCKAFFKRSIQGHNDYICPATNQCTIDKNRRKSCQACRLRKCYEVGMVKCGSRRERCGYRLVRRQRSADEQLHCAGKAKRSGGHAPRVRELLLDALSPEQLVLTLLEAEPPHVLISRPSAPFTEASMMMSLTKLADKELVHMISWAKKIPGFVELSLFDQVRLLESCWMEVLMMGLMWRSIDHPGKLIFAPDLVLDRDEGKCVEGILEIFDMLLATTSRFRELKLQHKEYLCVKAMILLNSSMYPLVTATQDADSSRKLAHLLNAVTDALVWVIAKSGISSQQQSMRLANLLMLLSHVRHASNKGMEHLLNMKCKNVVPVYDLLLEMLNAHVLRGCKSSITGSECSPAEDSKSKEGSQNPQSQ

ERα = molecular target: T2, ERα (Homo sapiens, UniProt P03372); assay: as above; type: cell-based; details: for Reporter gene assay raw data, ERa: 4 replicate columns
T2 construct: expressed in transfected cells; host or cells: HEK 293 T cells
T2 sequence (P03372 1-595): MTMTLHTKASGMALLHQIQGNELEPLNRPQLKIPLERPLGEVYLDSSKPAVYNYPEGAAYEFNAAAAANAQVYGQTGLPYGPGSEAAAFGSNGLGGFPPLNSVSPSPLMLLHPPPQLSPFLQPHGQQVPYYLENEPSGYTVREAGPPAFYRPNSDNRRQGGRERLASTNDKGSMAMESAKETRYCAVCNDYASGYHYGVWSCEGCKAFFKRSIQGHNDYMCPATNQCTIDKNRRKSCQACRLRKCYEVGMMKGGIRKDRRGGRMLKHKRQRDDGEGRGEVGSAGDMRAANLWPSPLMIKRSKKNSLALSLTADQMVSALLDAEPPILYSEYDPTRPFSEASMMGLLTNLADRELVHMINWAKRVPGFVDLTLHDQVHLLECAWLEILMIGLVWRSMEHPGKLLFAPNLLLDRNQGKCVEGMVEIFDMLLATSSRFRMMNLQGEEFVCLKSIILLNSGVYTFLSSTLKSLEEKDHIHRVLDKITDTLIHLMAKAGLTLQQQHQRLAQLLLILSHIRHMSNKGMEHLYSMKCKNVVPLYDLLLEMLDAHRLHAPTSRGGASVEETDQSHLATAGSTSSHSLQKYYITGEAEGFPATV

For `Oc1ccc(-n2nc3ccc(O)cc3c2Cl)cc1` [Compound K-101], which “Reporter gene assay raw data, ERb” value (ERβ; Log M -6) is on record?
Its value is 120.988 and 116.157 and 143.98 and 147.219.

What about the “ERb reporter gene assay raw data (response)” value (ERβ; Log M -6) of the same molecule?
The value was 111.44 and 122.263 and 112.615 and 103.371.

And the “Reporter gene assay raw data, ERb” value (ERβ; Log M -6.47756)?
Its value is 114.841 and 114.867 and 137.295 and 151.298.

What about the “ERb reporter gene assay raw data (response)” value (ERβ; Log M -6.47756) of the same molecule?
Its value is 99.9004 and 104.917 and 98.5023 and 107.756.

And the “Reporter gene assay raw data, ERb” value (ERβ; Log M -6.95468)?
Its value is 124.443 and 116.848 and 139.382 and 142.558.

And the “ERb reporter gene assay raw data (response)” value (ERβ; Log M -6.95468)?
Its value is 103.919 and 109.742 and 107.029 and 112.5.

And the “Reporter gene assay raw data, ERb” value (ERβ; Log M -7.4318)?
The value was 110.594 and 113.713 and 119.524 and 142.929.

And the “ERb reporter gene assay raw data (response)” value (ERβ; Log M -7.4318)?
Its value is 106.837 and 108.962 and 105.441 and 101.954.

And the “Reporter gene assay raw data, ERb” value (ERβ; Log M -7.91009)?
The value was 112.17 and 111.487 and 138.169 and 129.452.

What about the “ERb reporter gene assay raw data (response)” value (ERβ; Log M -7.91009) of the same molecule?
The value was 109.149 and 102.176 and 94.3567 and 106.552.

What about the “Reporter gene assay raw data, ERb” value (ERβ; Log M -8.3851) of the same molecule?
Its value is 117.284 and 114.634 and 116.673 and 134.281.

What about the “ERb reporter gene assay raw data (response)” value (ERβ; Log M -8.3851) of the same molecule?
Its value is 104.39 and 105.189 and 99.3517 and 108.832.

What about the “Reporter gene assay raw data, ERb” value (ERβ; Log M -8.86328) of the same molecule?
Its value is 116.233 and 118.325 and 116.611 and 129.233.

And the “ERb reporter gene assay raw data (response)” value (ERβ; Log M -8.86328)?
Its value is 100.866 and 91.0385 and 99.5048 and 94.2764.

And the “Reporter gene assay raw data, ERb” value (ERβ; Log M -9.34008)?
The value was 83.1588 and 87.5707 and 97.8302 and 99.1529.

And the “ERb reporter gene assay raw data (response)” value (ERβ; Log M -9.34008)?
The value was 78.6235 and 76.3041 and 74.4798 and 84.9468.

What about the “Reporter gene assay raw data, ERb” value (ERβ; Log M -9.81816) of the same molecule?
The value was 46.3463 and 45.2097 and 53.3712 and 57.2512.

And the “ERb reporter gene assay raw data (response)” value (ERβ; Log M -9.81816)?
Its value is 51.4383 and 42.8216 and 46.1589 and 42.3832.

What about the “Reporter gene assay raw data, ERb” value (ERβ; Log M -10.2941) of the same molecule?
Its value is 13.5511 and 13.5131 and 21.4772 and 19.6971.

What about the “ERb reporter gene assay raw data (response)” value (ERβ; Log M -10.2941) of the same molecule?
The value was 11.6805 and 12.8501 and 11.4455 and 13.5515.

What about the “Reporter gene assay raw data, ERb” value (ERβ; Log M -10.7721) of the same molecule?
The value was 2.426 and 2.349 and 4.55 and 3.395.

What about the “ERb reporter gene assay raw data (response)” value (ERβ; Log M -10.7721) of the same molecule?
The value was 3.239 and 2.8663 and 1.689 and 3.053.

And the “Reporter gene assay raw data, ERb” value (ERβ; Log M -11.248)?
The value was 1.344 and 1.212 and 1.016 and 0.8144.

What about the “ERb reporter gene assay raw data (response)” value (ERβ; Log M -11.248) of the same molecule?
Its value is 2.211 and 0.8495 and 0.02026 and 1.717.

What about the “ERb reporter gene assay raw data (response)” value (ERβ; Log M -13) of the same molecule?
Its value is 0.5566 and -0.5566 and 0.8119 and -0.8119.

What about the “Reporter gene assay raw data, ERa” value (ERα; Log M -6, first ERa data block (head r2)) of the same molecule?
Its value is 104.545 and 98.5711 and 90.2001 and 86.8078.

And the “Reporter gene assay raw data, ERa” value (ERα; Log M -6, second ERa data block (head r34))?
Its value is 95.025 and 94.1762 and 88.9253 and 94.8982.

What about the “Reporter gene assay raw data, ERa” value (ERα; Log M -6.47756, first ERa data block (head r2)) of the same molecule?
Its value is 85.5888 and 84.856 and 83.9539 and 86.1821.

What about the “Reporter gene assay raw data, ERa” value (ERα; Log M -6.47756, second ERa data block (head r34)) of the same molecule?
The value was 88.8265 and 82.9979 and 83.8682 and 89.3798.

And the “Reporter gene assay raw data, ERa” value (ERα; Log M -6.95468, first ERa data block (head r2))?
Its value is 74.2269 and 77.1348 and 79.6996 and 75.9439.

What about the “Reporter gene assay raw data, ERa” value (ERα; Log M -6.95468, second ERa data block (head r34)) of the same molecule?
Its value is 78.2124 and 79.7922 and 76.8721 and 73.4179.

What about the “Reporter gene assay raw data, ERa” value (ERα; Log M -7.4318, first ERa data block (head r2)) of the same molecule?
Its value is 58.4425 and 53.4049 and 54.6387 and 66.4913.

And the “Reporter gene assay raw data, ERa” value (ERα; Log M -7.4318, second ERa data block (head r34))?
The value was 66.1364 and 63.6537 and 63.2155 and 63.5605.

What about the “Reporter gene assay raw data, ERa” value (ERα; Log M -7.91009, first ERa data block (head r2)) of the same molecule?
The value was 54.5242 and 53.4131 and 49.5391 and 50.4679.

And the “Reporter gene assay raw data, ERa” value (ERα; Log M -7.91009, second ERa data block (head r34))?
The value was 55.1309 and 61.6988 and 46.1658 and 50.4053.

And the “Reporter gene assay raw data, ERa” value (ERα; Log M -8.3851, first ERa data block (head r2))?
The value was 36.2798 and 37.8765 and 41.0912 and 38.4728.

And the “Reporter gene assay raw data, ERa” value (ERα; Log M -8.3851, second ERa data block (head r34))?
The value was 40.2636 and 45.8507 and 39.6541 and 35.9505.

And the “Reporter gene assay raw data, ERa” value (ERα; Log M -8.86328, first ERa data block (head r2))?
Its value is 20.0299 and 22.3737 and 21.1668 and 19.8353.

What about the “Reporter gene assay raw data, ERa” value (ERα; Log M -8.86328, second ERa data block (head r34)) of the same molecule?
Its value is 25.3166 and 18.7166 and 21.7026 and 19.2485.

What about the “Reporter gene assay raw data, ERa” value (ERα; Log M -9.34008, first ERa data block (head r2)) of the same molecule?
Its value is 7.216 and 7.17 and 5.351 and 7.624.

What about the “Reporter gene assay raw data, ERa” value (ERα; Log M -9.34008, second ERa data block (head r34)) of the same molecule?
Its value is 6.164 and 5.9134 and 5.736 and 5.474.

And the “Reporter gene assay raw data, ERa” value (ERα; Log M -9.81816, first ERa data block (head r2))?
The value was 1.823 and 1.931 and 1.019 and 2.136.

What about the “Reporter gene assay raw data, ERa” value (ERα; Log M -9.81816, second ERa data block (head r34)) of the same molecule?
Its value is 0.6247 and 1.953 and 0.3211 and 0.779.

What about the “Reporter gene assay raw data, ERa” value (ERα; Log M -10.2941, first ERa data block (head r2)) of the same molecule?
The value was 1.733 and 1.446 and -0.6404 and -0.6096.

And the “Reporter gene assay raw data, ERa” value (ERα; Log M -10.2941, second ERa data block (head r34))?
The value was -0.6765 and 0.406 and -1.087 and 0.2814.

And the “Reporter gene assay raw data, ERa” value (ERα; Log M -10.7721, first ERa data block (head r2))?
Its value is -0.886 and -0.01848 and -1.926 and -0.988.

And the “Reporter gene assay raw data, ERa” value (ERα; Log M -10.7721, second ERa data block (head r34))?
Its value is -1.593 and -1.3667 and -0.9474 and 0.114.

What about the “Reporter gene assay raw data, ERa” value (ERα; Log M -11.248, first ERa data block (head r2)) of the same molecule?
The value was -1.205 and 0.7176 and 0.3903 and 0.3615.

What about the “Reporter gene assay raw data, ERa” value (ERα; Log M -11.248, second ERa data block (head r34)) of the same molecule?
Its value is -1.908 and -0.2669 and 0.1993 and -0.8382.

What about the “ERa reporter gene assay raw data (response)” value (ERα; Log M -13, four replicate columns per compound) of the same molecule?
Its value is 0.8253 and -0.8253 and 1.478 and -1.478.
